Assay results as given in paper PMC11661381, “Covalent-fragment screening identifies selective inhibitors of multiple Staphylococcus aureus serine hydrolases important for growth and biofilm formation” (Research Square, 2024).

What was measured:
[1] = test system: S. aureus biofilm formation; test: Crystal violet biofilm inhibition assay; type: cell-based, Staphylococcus aureus; conditions: for effect on biofilm formation (in words): wild type S. aureus, 1–100 μM
Protocol: Overnight cultures of S. aureus (wild-type, transposon mutants and complemented) strains (Table S3) grown in TSB, were subcultured on fresh TSB and grown to OD600 of 0.5. Biofilms were cultured in 96 well plates by transferring 1 μL of the culture to 200 μL of TSB plus 1% glucose with or without the inhibitors and incubated for 16 hours at 37°C without agitation. The inhibitor concentrations ranged from 1, 5, 10, 50 and 100 μM final concentration. Equal volume of DMSO was added as control. The wells were washed to remove the planktonic cells and the plates air-dried before staining with 200μL of 0.1% w/v crystal violet for 10 minutes at room temperature. The wells were washed to remove excess dye and blotted to dry. Each well was filled with 200μL of DMSO for 10 minutes at room temperature to dissolve the dye. The absorbance was measured at 590 nm using Spark multimode microplate reader (TECAN). The data represents n = 3 independent experiments and are expressed as a percentage of the uninhibited wild-type bacteria. All the data are normalized such that 100% represent untreated WT S. aureus. P values were determined using ordinary one-way ANOVA multiple comparisons GraphPad Prism 10.0 software. *P < 0.05, **P < 0.01, ***P < 0.001 and ****P < 0.0001.

rFphB [2] = biological target: T1, rFphB (Staphylococcus aureus, UniProt A0A0H2XJG5); test: FP-Cy5 active site labeling competition of recombinant protein, rFphB; type: binding
T1 construct: made in house
T1 sequence (A0A0H2XJG5 1-322): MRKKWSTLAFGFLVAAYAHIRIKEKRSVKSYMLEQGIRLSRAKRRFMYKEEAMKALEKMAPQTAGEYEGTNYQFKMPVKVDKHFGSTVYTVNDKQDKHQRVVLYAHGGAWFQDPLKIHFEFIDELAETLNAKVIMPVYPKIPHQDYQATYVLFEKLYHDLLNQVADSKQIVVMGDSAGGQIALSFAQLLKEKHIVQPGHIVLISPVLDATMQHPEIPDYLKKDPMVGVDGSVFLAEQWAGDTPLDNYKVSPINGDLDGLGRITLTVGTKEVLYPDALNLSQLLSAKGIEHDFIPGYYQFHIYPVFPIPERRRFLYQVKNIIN
Protocol: (§1) For activity-based protein labeling experiments, 500 nM of rFphB, rFphE and rFphH in 1X PBS and 0.1% Triton–X were preincubated with different concentrations of inhibitors or DMSO for 2hr at room temperature, followed by adding 300 nM of fluorophosphonate (FP) alkyne and incubated for 30 min at room temperature. Next, 20 μL of the reaction volume were mixed with 2.16 μL of freshly prepared click mix (0.5 μL of 50 mM CuSO4 in H2O, 1.16 μL of 100 mM BTTAA in DMSO, and 0.5 μL of N3-Cy5 in DMSO) and 1.16 μL of 300 mM sodium ascorbate solution in H2O. Samples were incubated at 37°C for 30 min, boiled in SDS loading buffer and analyzed by SDS–PAGE. Cy5 fluorescence was imaged using the Cy5 channel on a Typhoon 9410 Imager (Amersham Biosciences).

[3] = test system: S. aureus wild type and fph transposon mutants; test: Bacterial growth inhibition assay, S. aureus; type: cell-based, Staphylococcus aureus; conditions: 1–100 μM
Protocol: (§2) Bacteria were streaked from glycerol stocks onto agar plates and grown overnight at 37°C. A single colony was inoculated in either Tryptic Soy Broth (TSB; Sigma-Aldrich, St. Louis, MO; used for most species) or Bacto Brain Heart Infusion (BHI; Becton, Dickinson, and Company, Franklin Lakes, NJ; used for L. monocytogenes and S. pyogenes) and grown at 37°C shaking until mid-exponential phase (OD600 = 0.5), then diluted 1:10 in cation-adjusted Mueller Hinton Broth (MHB2, Millipore Sigma, Bedford, MA; used for most species) or BHI (for L. monocytogenes and S. pyogenes). 15 μl of this dilution was added to 135 μl of MHB2 or BHI in a flat-bottom clear 96-well plate for a starting inoculum of ~ 5 × 10^5 CFU/ml.
(§3) For bacterial growth inhibition assay, wild-type S. aureus and transposon mutants (fphB::Tn, fphE::Tn and fphH::Tn) were grown with compounds at final concentrations ranging from 1–100 μM and compared to growth in media with an equivalent percentage of DMSO. Each condition was plated as technical duplicates. The plate was incubated at 37°C with shaking every 15 minutes followed by measurement of OD600 for 14 hr. All growth curves were repeated at least twice and analyzed in GraphPad Prism 10.0 software. For bacterial resistance analysis, overnight culture of S. aureus Newman was diluted to an OD600 of 0.01 in MHB. This was followed by pretreatment with 20 μM N34 or equivalent DMSO volume as control. The pretreatment was allowed to proceed for 3 hr before initiating treatment with different concentrations of the test antibiotics (Table S5). The cultures were incubated overnight at 37°C, 5% CO2 before their optical density was read. The EC50 of the antibiotics against the bacteria in the presence or absence of N34 were determined by fitting the normalized data into a four-parameter logistic model in GraphPad Prism 10.0 software.

HEK293 cells = test: Cytotoxicity assay (CellTiter-Blue); type: cell-based; conditions: mammalian cells
rFphB [4] = biological target: T1, rFphB; test: Intact protein LC-MS of rFphB with inhibitor; type: binding; conditions: rFphB:X20 1:10
Protocol: Next, 10 μL of the labeled sample was injected and analyzed by LC-MS. For LC-MS conditions, 95% solvent A (0.1% formic acid in LC-MS grade water), 5% solvent B (0.1% formic acid in LC-MS grade acetonitrile) at 0.6 mL/min was used for 2 min to remove excess of salts into waste before a linear 6-minute gradient from 80% solvent A (20% solvent B) to 20% solvent A (80% solvent B), followed by a one-minute 95% solvent A (5% solvent B). Protein labeling efficiency was quantified by UV. The acquired mass of protein was deconvoluted using the deconvolution software in Agilent Bioanalysis Software package.

[5] = biological target: T2, Fph enzymes in live S. aureus cells (USA300) (Staphylococcus aureus, UniProt A0A0H2XJG5); test: Competition of FP-alkyne labeling in live S. aureus cells; type: cell-based; conditions: live cells, increasing concentrations, 120 min
T2 construct: endogenous in cells; host or cells: live S. aureus USA300 (LAC) wild-type cells
T2 sequence (A0A0H2XJG5 1-322): T1 sequence (A0A0H2XJG5 1-322)
Protocol: (§4) One colony of each of S. aureus wild-type and transposon mutants fphB::Tn, fphE::Tn and fphH::Tn picked from growth on a Tryptic soya agar plate were inoculated in 5 mL of Tryptic soya broth (TSB). The overnight bacterial cultures were spun down at 5,000 g for 10 min and pellet was collected. The pellets were washed twice in 1X PBS buffer and resuspended in the same buffer. Cells were first preincubated with the indicated concentrations of inhibitors for 2hr at 37°C. The cells were washed twice with 1X PBS buffer. The resuspended pellets were incubated with Fluorophosphonate-alkyne (FP-alkyne) for 30 min at 37°C. Cells were washed again twice with 1X PBS buffer and resuspended in with 1X PBS and 0.1% Triton–X and lysed by beat beating at 4°C. Next, lysed cells (20 μL) were mixed with 2.16 μL of freshly prepared click mix (0.5 μL of 50 mM CuSO4 in H2O, 1.16 μL of 100 mM BTTAA in DMSO, and 0.5 μL of N3-Cy5 in DMSO) and 1.16 μL of 300 mM sodium ascorbate solution in H2O and incubated at 37 °C for 30 min. Next step, 20 μL of 4X SDS loading buffer was added in each sample and boiled at 100 °C for 10 min. The processed samples were allowed to cool and analyzed by SDS-PAGE (12%) running at 120 V in an electrophoresis chamber. Cy5 fluorescence was imaged using the Cy5 channel on a Typhoon 9410 Imager (Amersham Biosciences).

Streptococcus pyogenes = test: Bacterial growth inhibition assay, S. pyogenes; type: cell-based
Protocol: as §2
(§5) For bacterial growth inhibition assay, wild-type S. aureus and transposon mutants (fphB::Tn, fphE::Tn and fphH::Tn) were grown with compounds at final concentrations ranging from 1–100 μM and compared to growth in media with an equivalent percentage of DMSO. […] All growth curves were repeated at least twice and analyzed in GraphPad Prism 10.0 software. […] The cultures were incubated overnight at 37°C, 5% CO2 before their optical density was read. The EC50 of the antibiotics against the bacteria in the presence or absence of N34 were determined by fitting the normalized data into a four-parameter logistic model in GraphPad Prism 10.0 software.

[6] = Cytotoxicity assay (CellTiter-Blue); type: cell-based; conditions: human; HEK293 cells, 48hr of incubation
Escherichia coli = test: Bacterial growth inhibition assay, E. coli; type: cell-based
S. epidermidis = test: Bacterial growth inhibition assay, S. epidermidis; type: cell-based, Staphylococcus epidermidis
Protocol: as §2, §5

[7] = test system: Fph enzymes in live S. aureus cells (USA300); test: Competition of FP-alkyne labeling in live S. aureus cells; type: cell-based, Staphylococcus aureus
Protocol: as §4

S. aureus Newman = test: Antibiotic susceptibility after N34 pretreatment; type: cell-based, Staphylococcus aureus; conditions: 20 μM N34 pretreatment, then antibiotics; Table S5
Protocol: The strong antibiofilm activity of the boronic acid compounds argues for their possible use in combination therapy with antibiotics to treat staphylococcal infections. Therefore, we wanted to test if the N34 treatment impacts the susceptibility profile of the S. aureus to antibiotics. To test this, we pretreated bacteria with a sub-inhibitory concentration of N34 (20 μM) for 2 hours at 37°C followed by treatment with selected antibiotics.
as §3, with “This was followed by pretreatment with 20 μM N34 or equivalent DMSO volume as control. The pretreatment was allowed to proceed for 3 hr before initiating treatment with different concentrations of the test antibiotics (Table S5).” left out

rFphH = biological target: T3, rFphH (Staphylococcus aureus, UniProt A0A0H2XJL0); test: FP-Cy5 active site labeling of recombinant protein, rFphH; type: binding; conditions: 500 nM rFphH
T3 construct: otherwise full-length FphE (Uniprot ID Q2FDS6) and FphH (A0A0H2XJL0) proteins; His6 (3C-cleavable, pETNKI-his-3C-LIC vector) (N); made in house; E. coli is inferred from the pET28a-type vector, IPTG induction and LB/kanamycin
T3 sequence (A0A0H2XJL0 1-246): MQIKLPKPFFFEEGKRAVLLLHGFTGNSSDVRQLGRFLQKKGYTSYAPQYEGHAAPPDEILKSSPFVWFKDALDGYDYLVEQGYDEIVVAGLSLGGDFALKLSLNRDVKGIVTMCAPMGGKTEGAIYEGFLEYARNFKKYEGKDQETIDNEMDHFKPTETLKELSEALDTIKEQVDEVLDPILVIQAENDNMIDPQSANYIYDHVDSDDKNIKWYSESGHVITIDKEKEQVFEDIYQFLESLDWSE
Protocol: as §1

Pseudomonas aeruginosa = test: Bacterial growth inhibition assay, P. aeruginosa; type: cell-based
Protocol: as §2, §5

COc1cc2c(cc1S(=O)(=O)F)C(=O)NCCC2 [X20]
reduction of biofilms ([1]; WT cells, highest concentrations): 60% | reduction of biofilms ([1]; fphB mutant): 40% | effect on biofilm formation (in words) [1]: significant inhibition of biofilm formation | competition of FP-Cy5 labeling of rFphB (in words) (rFphB [2]): dose-dependently blocked labeling of rFphB | effect on S. aureus growth (in words) [3]: minimal effect on planktonic growth | off-target effects in mammalian cells (in words) (HEK293 cells): did not show any off-target effects in mammalian cells | adduct formation on rFphB (in words) (rFphB [4]): a single X20 adduct formed | competition of FP-alkyne labeling of native FphB (in words) [5]: retains both its potency and selectivity towards the natively expressed FphB

OB(O)c1ccc(C(F)(F)F)s1 [N34]
effect on biofilm formation in transposon mutants (in words) ([1]; fphH or fphE transposon mutant): not further increased by addition of even 100 μM concentrations of N34 | effect on biofilm formation (in words) [1]: most pronounced effects | growth inhibition (in words) (Streptococcus pyogenes): no growth inhibition | effect on S. aureus growth (in words) [3]: both the fphE and fphH mutants grew slower than wild type | CC50 at 48 h [6]: > 200 µM | growth defect (in words) (Escherichia coli): no significant growth defect | growth inhibition (in words) (S. epidermidis): inhibited only by the FphH inhibitor N34 | competition of FP labeling in live cells (in words) ([7]; 100 μM compound, live S. aureus cells): blocked FP labeling of FphH | concentration giving partial inhibition of FphE and other lower molecular weight Fph proteins ([7]; live cells, doses 5–100 μM, 120 min preincubation): ≥ 50 µM | impact of N34 pretreatment on antibiotic susceptibility (in words) (S. aureus Newman): does not impact resistance or susceptibility profiles of the antibiotics | competition of FP-Cy5 labeling of rFphH (in words) (rFphH): dose-dependently blocked labeling of rFphH | growth defect (in words) (Pseudomonas aeruginosa): no significant growth defect
